Experimental data: PubChem BioAssay AID1845203 (Molecular Pharmacology Branch, DTP, NCI, 2023)

Test system: G-401 tumor spheroids, viability % test/control
Assay: Anticancer human tumor G-401 cell line growth inhibition;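 note: spheroids exposed to compound for 7 days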;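 for viability, T/C: 100% = DMSO vehicle-treated spheroids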
Details: spheroids with HUVEC and MSC; for IC50: curve of first compound; for viability, T/C: stronger effect = lower value
Outline: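 Single agents and combinations were tested on spheroids built from tumor cells plus HUVEC and hMSC, at half-log dilutions starting at or near clinical Cmax, else 10 microM; final DMSO 0.25% (v/v).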

Cc1sc2c(c1C)C(c1ccc(Cl)cc1)=NC(CC(=O)Nc1ccc(O)cc1)c1nnc(C)n1-2 (stereo not given) + Cn1nnc2c(C(N)=O)ncn2c1=O
IC50 (second compound 1 µM): 169 nM
IC50 (second compound 3.16 µM): 179 nM
IC50 (second compound 10 µM): 163 nM
IC50 (second compound 31.6 µM): 147 nM
IC50 (second compound 100 µM): 148 nM
viability, T/C (second compound 1 µM, first compound 0.00949 µM): 108%
viability, T/C (second compound 1 µM, first compound 0.03 µM): 83%
viability, T/C (second compound 1 µM, first compound 0.0949 µM): 67.4%
viability, T/C (second compound 1 µM, first compound 0.3 µM): 37.6%
viability, T/C (second compound 1 µM, first compound 0.949 µM): 13.4%
viability, T/C (second compound 1 µM, first compound 3 µM): 10.3%
viability, T/C (second compound 3.16 µM, first compound 0.00949 µM): 93%
viability, T/C (second compound 3.16 µM, first compound 0.03 µM): 91.8%
viability, T/C (second compound 3.16 µM, first compound 0.0949 µM): 65.1%
viability, T/C (second compound 3.16 µM, first compound 0.3 µM): 35.6%
viability, T/C (second compound 3.16 µM, first compound 0.949 µM): 19.7%
viability, T/C (second compound 3.16 µM, first compound 3 µM): 8.06%
viability, T/C (second compound 10 µM, first compound 0.00949 µM): 101%
viability, T/C (second compound 10 µM, first compound 0.03 µM): 77.3%
viability, T/C (second compound 10 µM, first compound 0.0949 µM): 63.5%
viability, T/C (second compound 10 µM, first compound 0.3 µM): 38%
viability, T/C (second compound 10 µM, first compound 0.949 µM): 20.9%
viability, T/C (second compound 10 µM, first compound 3 µM): 9.13%
viability, T/C (second compound 31.6 µM, first compound 0.00949 µM): 84.5%
viability, T/C (second compound 31.6 µM, first compound 0.03 µM): 82.6%
viability, T/C (second compound 31.6 µM, first compound 0.0949 µM): 56.1%
viability, T/C (second compound 31.6 µM, first compound 0.3 µM): 34%
viability, T/C (second compound 31.6 µM, first compound 0.949 µM): 20.5%
viability, T/C (second compound 31.6 µM, first compound 3 µM): 4.42%
viability, T/C (second compound 100 µM, first compound 0.00949 µM): 102%
viability, T/C (second compound 100 µM, first compound 0.03 µM): 83%
viability, T/C (second compound 100 µM, first compound 0.0949 µM): 64.8%
viability, T/C (second compound 100 µM, first compound 0.3 µM): 30.4%
viability, T/C (second compound 100 µM, first compound 0.949 µM): 11.2%
viability, T/C (second compound 100 µM, first compound 3 µM): 4.09%

[2H]c1nc(C)nc([2H])c1-c1cc(NC[C@@H](C)c2cccc3c(C(=O)NC)ccnc23)ncn1 + COc1cc2c(cc1O)CCNC21CSC2c3c(OC(C)=O)c(C)c4c(c3C(COC1=O)N1C(O)C3Cc5cc(C)c(OC)c(O)c5C(C21)N3C)OCO4
IC50 (second compound 30 pM): > 10000 nM
IC50 (second compound 94.9 pM): > 10000 nM
IC50 (second compound 0.0003 µM): < 31.6 nM
IC50 (second compound 0.000949 µM): < 31.6 nM
IC50 (second compound 0.003 µM): < 31.6 nM
viability, T/C (second compound 30 pM, first compound 0.0316 µM): 103%
viability, T/C (second compound 30 pM, first compound 0.1 µM): 103%
viability, T/C (second compound 30 pM, first compound 0.316 µM): 106%
viability, T/C (second compound 30 pM, first compound 1 µM): 105%
viability, T/C (second compound 30 pM, first compound 3.16 µM): 98.6%
viability, T/C (second compound 30 pM, first compound 10 µM): 106%
viability, T/C (second compound 94.9 pM, first compound 0.0316 µM): 88.6%
viability, T/C (second compound 94.9 pM, first compound 0.1 µM): 87.5%
viability, T/C (second compound 94.9 pM, first compound 0.316 µM): 93%
viability, T/C (second compound 94.9 pM, first compound 1 µM): 93.1%
viability, T/C (second compound 94.9 pM, first compound 3.16 µM): 93.9%
viability, T/C (second compound 94.9 pM, first compound 10 µM): 91.4%
viability, T/C (second compound 0.0003 µM, first compound 0.0316 µM): 36.1%
viability, T/C (second compound 0.0003 µM, first compound 0.1 µM): 39.9%
viability, T/C (second compound 0.0003 µM, first compound 0.316 µM): 40%
viability, T/C (second compound 0.0003 µM, first compound 1 µM): 42.6%
viability, T/C (second compound 0.0003 µM, first compound 3.16 µM): 31.8%
viability, T/C (second compound 0.0003 µM, first compound 10 µM): 37.4%
viability, T/C (second compound 0.000949 µM, first compound 0.0316 µM): 7.05%
viability, T/C (second compound 0.000949 µM, first compound 0.1 µM): 5.74%
viability, T/C (second compound 0.000949 µM, first compound 0.316 µM): 8.4%
viability, T/C (second compound 0.000949 µM, first compound 1 µM): 8.02%
viability, T/C (second compound 0.000949 µM, first compound 3.16 µM): 6.93%
viability, T/C (second compound 0.000949 µM, first compound 10 µM): 3.48%
viability, T/C (second compound 0.003 µM, first compound 0.0316 µM): 0.16%
viability, T/C (second compound 0.003 µM, first compound 0.1 µM): 0.17%
viability, T/C (second compound 0.003 µM, first compound 0.316 µM): 0.14%
viability, T/C (second compound 0.003 µM, first compound 1 µM): 0.13%
viability, T/C (second compound 0.003 µM, first compound 3.16 µM): 0.14%
viability, T/C (second compound 0.003 µM, first compound 10 µM): 0.22%
